Laboratory results as given in BindingDB's records for doi:10.1016/s0960-894x(98)00253-4 (San Francisco State University, 1999).

Biological target: T1, Gamma-glutamyl hydrolase (Homo sapiens, UniProt Q92820)
T1 sequence (Q92820 whole entry): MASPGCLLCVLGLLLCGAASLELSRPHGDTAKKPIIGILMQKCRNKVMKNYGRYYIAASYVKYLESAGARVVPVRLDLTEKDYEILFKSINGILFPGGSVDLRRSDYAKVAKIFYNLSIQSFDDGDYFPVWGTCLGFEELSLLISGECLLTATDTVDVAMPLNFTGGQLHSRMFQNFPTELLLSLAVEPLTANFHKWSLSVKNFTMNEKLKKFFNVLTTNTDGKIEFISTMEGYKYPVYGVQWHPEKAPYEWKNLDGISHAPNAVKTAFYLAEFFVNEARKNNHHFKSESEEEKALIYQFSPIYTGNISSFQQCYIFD
Test: ChEBML_68750
Conditions: read-out: kon (M-1-s-1)
Protocol: Compound was tested for inhibitory potency against gamma-Glutamyl Hydrolase.

Compound | kon [M⁻¹ s⁻¹]
COP(=O)(N[C@@H](CCC(=O)O)C(=O)O)OC | 177000
COP(=O)(N[C@@H](CCC(=O)O)C(=O)O)c1ccccc1 (some centres not stated) | 4400
